# Assay results taken from patent US9758502B2, “Dihydropyrone compounds and herbicides comprising the same” (SUMITOMO CHEMICAL COMPANY, LIMITED, priority 2012, dated 2017).
# Tested on: Echinochloa crus-galli
# Assay: Test 1-1 Post-emergence Treatment Test
# Format: in vivo
# Conditions: sprayed on whole plants at 1-2 leaf stages, treatment amount 1,000 g/10,000 m^2, after 20 days of the treatment, greenhouse
# Protocol: Here an efficacy for controlling weeds on the present compound was visually observed and evaluated in 11 criteria of 0 to 10 (0 represents no action, 10 represents complete death and the intermediate efficacy were evaluated in 1 to 9 criteria).
# Commercial soil for propagation was put in a pot measuring 8 cm in diameter and 6.5 cm in height, and in the pot, seeds of Echinochloa crus-galli were sown, and then covered with soil of about 0.5 cm thickness and the plants were grown in a greenhouse. When the plants were grown to 1-2 leaf stages, a predetermined amount of a chemical diluted solution containing a compound (1-1) was uniformly spayed on the whole plants. Here the chemical diluted solution was prepared by dissolving a predetermined amount of the compound (1-1) in dimethylformamide solution containing 2% of Tween 20 (polyoxyetylene sorbitan fatty acid ester) (manufactured by MP Biomedicals Inc.) and then diluting the solution with deionized water. After spraying, plants were grown in a greenhouse and after 20 days of the treatment, the efficacy for Echinochloa crus-galli was observed and the controlling effect was evaluated.
# Similarly, the present compounds (1-2) to (1-11) and (1-13) were also tested.
compound,measurement,value
CCc1cc(C)cc(CC)c1C1=C(O)CC(C(C)CS(=O)(=O)c2ccc(C(F)(F)F)cn2)OC1=O (stereo not shown) [(1-13)],"efficacy for controlling weeds (visually observed, 11 criteria of 0 to 10)",≥ 9
